Measurements from ChEMBL document CHEMBL3045441, “Microwave-assisted CAN-catalyzed solvent-free synthesis of N-allyl quinolone-based pyrano[4,3-b]chromene and benzopyrano[3,2-c]chromene derivatives and their antimicrobial activity” (2013).
≈ marks a conversion by molar mass, not a printed value.

How the values were obtained:
Type in all cases: functional
[1] = system: Candida albicans; test: Antimicrobial activity against Candida albicans MTCC 227 assessed as growth inhibition after 48 hr by NCCLS broth microdilution method
[2] = system: Escherichia coli; test: Antimicrobial activity against Escherichia coli MTCC 443 assessed as growth inhibition after 24 hr by NCCLS broth microdilution method; details: MTCC 443, 24 h
[3] = system: Pseudomonas aeruginosa; test: Antimicrobial activity against Pseudomonas aeruginosa MTCC 1688 assessed as growth inhibition after 24 hr by NCCLS broth microdilution method; details: MTCC 1688, 24 h
[4] = system: Aspergillus clavatus; test: Antimicrobial activity against Aspergillus clavatus MTCC 1323 assessed as growth inhibition after 48 hr by NCCLS broth microdilution method
[5] = system: Aspergillus niger; test: Antimicrobial activity against Aspergillus niger MTCC 282 assessed as growth inhibition after 48 hr by NCCLS broth microdilution method
[6] = system: Streptococcus pyogenes; test: Antimicrobial activity against Streptococcus pyogenes MTCC 442 assessed as growth inhibition after 24 hr by NCCLS broth microdilution method; details: MTCC 442, 24 h
[7] = system: Staphylococcus aureus; test: Antimicrobial activity against Staphylococcus aureus MTCC 96 assessed as growth inhibition after 24 hr by NCCLS broth microdilution method; details: MTCC 96, 24 h

| Molecule | MIC ([1]; MTCC 227, 48 h) [µg/mL] | MIC [2] [µg/mL] | MIC [3] [µg/mL] | MIC ([4]; MTCC 1323, 48 h) [µg/mL] | MIC ([5]; MTCC 282, 48 h) [µg/mL] | MIC [6] [µg/mL] | MIC [7] [µg/mL] | MIC [1] [µg/mL] | MIC [4] [µg/mL] | MIC [5] [µg/mL] |
| --- | --- | --- | --- | --- | --- | --- | --- | --- | --- | --- |
| C=CCn1c(=O)c(C2C3=C(CCCC3=O)Oc3cc(C)oc(=O)c32)cc2ccccc21 (stereo not drawn) | 500 (≈ 1200 µM) | 125 (≈ 301 µM) | 200 (≈ 481 µM) | 200 (≈ 481 µM) | 200 (≈ 481 µM) | 250 (≈ 602 µM) | 250 (≈ 602 µM) | – | – | – |
| C=CCn1c(=O)c(C2C3=C(CC(C)(C)CC3=O)Oc3c2c(=O)oc2ccccc32)cc2cc(OC)ccc21 (stereo not drawn) | 500 (≈ 981 µM) | 250 (≈ 491 µM) | 125 (≈ 245 µM) | > 1000 | > 1000 | 125 (≈ 245 µM) | 125 (≈ 245 µM) | – | – | – |
| C=CCn1c(=O)c(C2C3=C(CC(C)(C)CC3=O)Oc3cc(C)oc(=O)c32)cc2cc(Cl)ccc21 (stereo not drawn) | 1000 (≈ 2090 µM) | 250 (≈ 523 µM) | 500 (≈ 1050 µM) | > 1000 | > 1000 | 125 (≈ 262 µM) | 125 (≈ 262 µM) | – | – | – |
| C=CCn1c(=O)c(C2C3=C(CC(C)(C)CC3=O)Oc3cc(C)oc(=O)c32)cc2cc(OC)ccc21 (stereo not drawn) | 500 (≈ 1060 µM) | 500 (≈ 1060 µM) | 500 (≈ 1060 µM) | 1000 (≈ 2110 µM) | 1000 (≈ 2110 µM) | 250 (≈ 528 µM) | 250 (≈ 528 µM) | – | – | – |
| C=CCn1c(=O)c(C2C3=C(CC(C)(C)CC3=O)Oc3cc(C)oc(=O)c32)cc2ccccc21 (stereo not drawn) | 500 (≈ 1130 µM) | 100 (≈ 225 µM) | 62.5 (≈ 141 µM) | 500 (≈ 1130 µM) | 500 (≈ 1130 µM) | 250 (≈ 564 µM) | 500 (≈ 1130 µM) | – | – | – |
| C=CCn1c(=O)c(C2C3=C(CC(C)(C)CC3=O)Oc3cc(C)oc(=O)c32)cc2cc(C)ccc21 (stereo not drawn) | 1000 (≈ 2190 µM) | 500 (≈ 1090 µM) | 125 (≈ 273 µM) | 250 (≈ 546 µM) | 250 (≈ 546 µM) | 125 (≈ 273 µM) | 250 (≈ 546 µM) | – | – | – |
| C=CCn1c(=O)c(C2C3=C(CCCC3=O)Oc3cc(C)oc(=O)c32)cc2cc(Cl)ccc21 (stereo not drawn) | 1000 (≈ 2220 µM) | 500 (≈ 1110 µM) | 500 (≈ 1110 µM) | 1000 (≈ 2220 µM) | 500 (≈ 1110 µM) | 100 (≈ 222 µM) | 100 (≈ 222 µM) | – | – | – |
| C=CCn1c(=O)c(C2C3=C(CCCC3=O)Oc3c2c(=O)oc2ccccc32)cc2cc(Cl)ccc21 (stereo not drawn) | 1000 (≈ 2060 µM) | 200 (≈ 412 µM) | 100 (≈ 206 µM) | 1000 (≈ 2060 µM) | 1000 (≈ 2060 µM) | 125 (≈ 257 µM) | 125 (≈ 257 µM) | – | – | – |
| C=CCn1c(=O)c(C2C3=C(CCCC3=O)Oc3cc(C)oc(=O)c32)cc2cc(OC)ccc21 (stereo not drawn) | 500 (≈ 1120 µM) | 125 (≈ 281 µM) | 250 (≈ 561 µM) | 1000 (≈ 2240 µM) | 1000 (≈ 2240 µM) | 200 (≈ 449 µM) | 200 (≈ 449 µM) | – | – | – |
| O=C(O)c1cn(C2CC2)c2cc(N3CCNCC3)c(F)cc2c1=O [CIPROFLOXACIN] | – | 25 (≈ 75.4 µM) | – | – | – | 50 (≈ 151 µM) | 50 (≈ 151 µM) | – | – | – |
| CC1(C)S[C@@H]2[C@H](NC(=O)[C@H](N)c3ccccc3)C(=O)N2[C@H]1C(=O)O [AMPICILLIN] | – | 100 (≈ 286 µM) | – | – | – | 100 (≈ 286 µM) | 250 (≈ 715 µM) | – | – | – |
| C=CCn1c(=O)c(C2C3=C(CCCC3=O)Oc3c2c(=O)oc2ccccc32)cc2ccccc21 (stereo not drawn) | 500 (≈ 1110 µM) | 62.5 (≈ 138 µM) | 100 (≈ 221 µM) | > 1000 | > 1000 | 200 (≈ 443 µM) | 200 (≈ 443 µM) | – | – | – |
| C=CCn1c(=O)c(C2C3=C(CCCC3=O)Oc3cc(C)oc(=O)c32)cc2cc(C)ccc21 (stereo not drawn) | 1000 (≈ 2330 µM) | 125 (≈ 291 µM) | 250 (≈ 582 µM) | 1000 (≈ 2330 µM) | 500 (≈ 1160 µM) | 500 (≈ 1160 µM) | 500 (≈ 1160 µM) | – | – | – |
| C=CCn1c(=O)c(C2C3=C(CC(C)(C)CC3=O)Oc3c2c(=O)oc2ccccc32)cc2ccccc21 (stereo not drawn) | 250 (≈ 521 µM) | 500 (≈ 1040 µM) | 250 (≈ 521 µM) | 1000 (≈ 2090 µM) | 1000 (≈ 2090 µM) | 500 (≈ 1040 µM) | 250 (≈ 521 µM) | – | – | – |
| C=CCn1c(=O)c(C2C3=C(CCCC3=O)Oc3c2c(=O)oc2ccccc32)cc2cc(OC)ccc21 (stereo not drawn) | 500 (≈ 1040 µM) | 100 (≈ 208 µM) | 62.5 (≈ 130 µM) | 1000 (≈ 2080 µM) | 1000 (≈ 2080 µM) | 500 (≈ 1040 µM) | 62.5 (≈ 130 µM) | – | – | – |
| C=CCn1c(=O)c(C2C3=C(CC(C)(C)CC3=O)Oc3c2c(=O)oc2ccccc32)cc2cc(Cl)ccc21 (stereo not drawn) | 1000 (≈ 1950 µM) | 100 (≈ 195 µM) | 100 (≈ 195 µM) | 1000 (≈ 1950 µM) | 1000 (≈ 1950 µM) | 100 (≈ 195 µM) | 62.5 (≈ 122 µM) | – | – | – |
| C=CCn1c(=O)c(C2C3=C(CCCC3=O)Oc3c2c(=O)oc2ccccc32)cc2cc(C)ccc21 (stereo not drawn) | 250 (≈ 537 µM) | 20 (≈ 43 µM) | 100 (≈ 215 µM) | 500 (≈ 1070 µM) | 500 (≈ 1070 µM) | 250 (≈ 537 µM) | 250 (≈ 537 µM) | – | – | – |
| NYSTATIN | – | – | – | – | – | – | – | 100 | 100 | 100 |
| COC1=CC(=O)C[C@@H](C)[C@]12Oc1c(Cl)c(OC)cc(OC)c1C2=O [GRISEOFULVIN] | 500 (≈ 1420 µM) | – | – | 100 (≈ 283 µM) | 100 (≈ 283 µM) | – | – | – | – | – |
| C=CCn1c(=O)c(C2C3=C(CC(C)(C)CC3=O)Oc3c2c(=O)oc2ccccc32)cc2cc(C)ccc21 (stereo not drawn) | 500 (≈ 1010 µM) | 200 (≈ 405 µM) | 50 (≈ 101 µM) | 500 (≈ 1010 µM) | 500 (≈ 1010 µM) | 250 (≈ 507 µM) | 125 (≈ 253 µM) | – | – | – |
| O=C(N[C@H](CO)[C@H](O)c1ccc([N+](=O)[O-])cc1)C(Cl)Cl [CHLORAMPHENICOL] | – | 50 (≈ 155 µM) | 50 (≈ 155 µM) | – | – | 50 (≈ 155 µM) | 50 (≈ 155 µM) | – | – | – |
